{"source": "patent US9750934B2", "about": "“Treating bacteria with electric fields” (Novocure Limited, priority 2000, dated 2017)", "key": {"[1]": {"system": "P. aeruginosa strain PAO1", "experiment": "P. aeruginosa pulmonary infection in neutropenic ICR mice, ceftazidime alone or combined with electric fields / sham heat", "format": "in vivo, Pseudomonas aeruginosa", "settings": "for Average lungs weight, weight in mg (±STDEV): end of 48 hour treatment", "procedure": "In vivo experiments were also performed on Pseudomonas aeruginosa strain PAO1 in lungs of infected mice. For this example, bacteria were grown in LB media (1.0% Bacto tryptone, 0.5% Yeast extract, 1.0% NaCl (Frutarom, Haifa, Israel). Broth cultures of freshly plated bacteria were grown in 250 ml of liquid medium at 37° C. in an orbital shaker at 220 RPM (New Brunswick Scientific, N.J., USA) up to logarithmic phase, centrifuged and resuspended in saline containing 15% glycerol. Stocks were divided into aliquots of 50 μl each containing 2.17×10^7 Colony Forming Units (CFU)/ml and kept at −70° C. until use.\nExperiments were conducted on 7- to 8-week-old (body weight 26-35 g) ICR female mice obtained from Harlan laboratories (Israel). Mice were housed under standard conditions of light and temperature, and were fed standard laboratory chow and water ad libitum. Electric fields were generated by 2 pairs of parallel metal electrodes, 15 mm-long; 3 mm-high. The front of the electrodes was completely insulated from the medium by a ceramic [(lead magnesium niobate-lead titanate (PMN-PT) (EDO, New York, N.Y.)] having a very high dielectric constant (∈>5000) such that their capacitance was about 10 nF each. The back of the electrodes was insulated by a 2.5 mm thick layer of 353ND medical grade epoxy (Epoxy Technology, Billerica, Mass., USA). Each electrode contained a thermistor placed within the epoxy directly on top of the ceramic in order to allow for constant monitoring of the electrodes' temperature.\nTwo control groups were set in each experiment: sham heat control, and non treated control (referred to as “Control”). Control electrodes of identical size and shape to the electric fields electrodes, were placed on mice of the two control groups. The Sham heat electrodes produced equal temperature changes to those produced by the field electrodes by means of a heating resistor incorporated within them, and the sham heat electrodes were placed in the same positions as the real electrodes. Except for the differences in the electrodes, the control mice and the sham heat treated mice were held in conditions identical to those of the electric fields treated mice.\nMice were rendered neutropenic (neutrophil counts, <100/mm^3), as described in Andes and Craig (1998), by two intraperitoneal injections of cyclophosphamide; four days before infection (150 mg/kg of body weight) and an additional injection one day before infection (100 mg/kg of body weight). The pulmonary infection model of Takeda et al., (2006) was used with minor modifications: Anesthetized ICR mice were challenged intra-nasally with 20 μL of saline containing various concentrations (10^4-10^7 CFU/ml) of P. aeruginosa strain PAO1. On the day of infection, immediately before use, frozen bacterial cultures were thawed and diluted in saline to the desired concentration. Anesthetized mice were challenged intra-nasally with the bacterial suspension. Mice were sacrificed at 0, 3, 6, 9, 24, and 48 hours after infection in order to determine CFU counts in their lungs. After skin disinfection with 70% alcohol, lungs from sacrificed mice were removed aseptically, photographed, weighted and their CFU content was determined.\nApplication of electric fields to the mouse torso was carried out as follows: 4 days before infection, the torso of anesthetized mice was shaved with electrical clippers and depilated using cold wax. Electric fields treatment was applied through four insulated electrodes placed around the mouse torso so as to generate fields of two perpendicular directions. Mice were placed inside the IVC cages and the electrodes were connected to the connection box. Application of electric fields began 3 hours after infection and was maintained for 48 h with two brief stops daily for monitoring the physical condition of the mice. After 48 h of treatment, the mice were sacrificed and bacterial numbers in lung were determined. […]"}, "S. aureus [2]": {"system": "S. aureus", "experiment": "MIC of antibiotic by serial twofold dilutions (NCCLS guidelines)", "format": "cell-based, Staphylococcus aureus strain SH1000", "settings": "Staphylococcus aureus; chloramphenicol alone; lowest concentration that completely inhibited growth; read-out: MIC against S. aureus", "procedure": "Experiments were also performed on two different types of bacteria—Pseudomonas aeruginosa strain PAO1 and Staphylococcus aureus strain SH1000. All strains were grown in LB media (1.0% Bacto tryptone, 0.5% Yeast extract, 1% NaCl). Broth cultures of freshly plated bacteria strains were grown in 3 ml of liquid medium at 37° C. for 15 hours in an orbital shaker (220 RPM) and diluted in fresh LB broth to a predetermined absorbance at 595 nm which yielded the desired CFU per ml.\nThe combined effect of the electric fields and antibiotics was also tested. Chloramphenicol was obtained as powder and dissolved in EtOH (99%, Frutarom). All the stock solutions were filter sterilized and held at −20° C. until use. Serial twofold dilutions of each antibiotic agent were prepared following NCCLS guidelines. […] The MIC of electric fields was defined as the lowest intensity that inhibits growth by 80% or more compared with control, as determined using the microplate reader."}, "S. aureus [3]": {"system": "S. aureus", "experiment": "Checkerboard test of the combined effect of electric fields and chloramphenicol on growth of S. aureus", "format": "cell-based, Staphylococcus aureus strain SH1000", "procedure": "At the end of treatment, the cultures were stirred several times by up and down pipetting. Four aliquots of 250 μl were dispensed into a 96 MicroWells plate (Nunclon™ Δ, Nunc, Denmark) and the OD was determined spectrophotometrically with a microplate reader (Infinite 200, Tecan, Austria) at 750 nm. The optical densities (ODs) of the blanks, which consisted of uninoculated LB, were subtracted from the ODs of the inoculated plates. The percentage of growth for each well was calculated by dividing the OD of the wells by that of the control: (OD750mm of treated wells/OD750nm of the control well)×100.\nDrug interactions with the electric fields were assessed according to the checkerboard method, with the following modifications: S. aureus inocula were diluted in LB medium containing the antibiotic to final concentration of 0.5 to 1.0×10^5 CFU/ml. The final concentrations of the chloramphenicol ranged from 0.125 to 16 μg/ml. Petri dishes containing the electric fields chamber were filled with 7 ml of the diluted cultures, and placed inside a pre cooled incubator. Fields were applied for 6 hours with the field direction alternating every 300 ms and the field intensities were varied by changing the incubator ambient temperature. Thus, lower ambient temperatures allowed for higher field intensities while maintaining the proper culture temperature of 37° C. Control plates containing the same electric fields chambers were placed in a pre-warmed incubator set at 37° C. At the end of the treatment, the cultures were stirred by pipetting the plate content up and down. Quadruplicates of 250 μl each were transferred to a 96 MicroWells plate (Nunc) and the OD was determined using Tecan microplate reader. Cultures were subjected to serial 10-fold dilution (up to 1/10,000) by adding 20 μl of sample to 180 μl of saline solution (0.85% NaCl), from which 80 μl aliquots were plated on LB agar plates (1.5% agar, 1.0% Bacto tryptone, 1% NaCl, 0.5% Yeast extract). CFU counts were performed after overnight incubation at 37° C.\nTo evaluate the effect of the combinations, the fractional inhibitory concentration (FIC) was calculated for the electric fields and for each antibiotic. The following formulas were used to calculate the FIC index: FIC of electric fields=MIC of electric fields in combination/MIC of electric fields alone, FIC of drug B=MIC of drug B in combination/MIC of drug B alone, and FIC index=FIC of electric fields+FIC of drug B. Synergy was defined as an FIC index of ≦0.5. Indifference was defined as an FIC index of >0.5 but of ≦4. Antagonism was defined as an FIC index of >4."}}, "note": "Where “and” joins values, the source holds several entries; their conditions need not be identical. Identical values can stand only once.", "data": [{"molecule": "CC(C)(O/N=C(\\C(=O)N[C@@H]1C(=O)N2C(C(=O)[O-])=C(C[n+]3ccccc3)CS[C@H]12)c1csc(N)n1)C(=O)O", "note": "[ceftazidime, Ceftazidime]", "values": [{"measurement": "reduction in the lung CFU content compared to the antibiotic-only treated control", "setting": "[1]; 48 h combined treatment of electric fields and ceftazidime", "result": 1.5, "unit": "log"}, {"measurement": "Log CFU (T48) ± STDEV, number of bacteria in the lungs of infected mice", "setting": "[1]; ceftazidime 5 mg/kg i.p. twice daily + electric fields, 48 h", "result": "5.0 ± 1.7", "unit": "Log CFU"}, {"measurement": "Log CFU (T48) ± STDEV, number of bacteria in the lungs of infected mice", "setting": "[1]; ceftazidime 5 mg/kg i.p. twice daily + sham heat, 48 h", "result": "6.0 ± 2.3", "unit": "Log CFU"}, {"measurement": "Log CFU (T48) ± STDEV, number of bacteria in the lungs of infected mice", "setting": "[1]; ceftazidime 5 mg/kg i.p. twice daily alone (control of the with-ceftazidime groups), 48 h", "result": "6.5 ± 2.5", "unit": "Log CFU"}, {"measurement": "growth reduction compared to the non treated lungs", "setting": "[1]; ceftazidime 10 mg/kg BW/day alone", "result": "~2", "unit": "logs"}, {"measurement": "log CFU/lung (T48/T0) (±STDEV), P. aeruginosa growth in mice lungs", "setting": "[1]; ceftazidime + electric fields, 48 h", "result": "0.4 log CFU/lung and 0.4 ± 1.7 log CFU/lung"}, {"measurement": "Average lungs weight, weight in mg (±STDEV)", "setting": "[1]; ceftazidime + electric fields", "result": "244 ± 31", "unit": "mg"}, {"measurement": "log CFU/lung (T48/T0) (±STDEV), P. aeruginosa growth in mice lungs", "setting": "[1]; ceftazidime + sham heat, 48 h", "result": "1.3 ± 2.2", "unit": "log CFU/lung"}, {"measurement": "Average lungs weight, weight in mg (±STDEV)", "setting": "[1]; ceftazidime + sham heat", "result": "275 ± 60", "unit": "mg"}, {"measurement": "log CFU/lung (T48/T0) (±STDEV), P. aeruginosa growth in mice lungs", "setting": "[1]; ceftazidime alone (control), 10 mg/kg BW/day, 48 h, 10 mg/kg/day", "result": "1.9 log CFU/lung and 1.9 ± 2.5 log CFU/lung"}, {"measurement": "Average lungs weight, weight in mg (±STDEV)", "setting": "[1]; ceftazidime alone (control)", "result": "310 ± 77", "unit": "mg"}, {"measurement": "lung CFU count reduction compared to the control", "setting": "[1]; combined treatment of sham heat and ceftazidime, 48 h", "result": "did not result in a significant count reduction"}]}, {"molecule": "O=C(N[C@H](CO)[C@H](O)c1ccc([N+](=O)[O-])cc1)C(Cl)Cl", "note": "[chloramphenicol, Chloramphenicol]", "values": [{"measurement": "MIC", "setting": "S. aureus [2]", "result": 4, "unit": "µg/mL"}, {"measurement": "combined effect of electric fields and chloramphenicol", "setting": "S. aureus [3]; S. aureus, 10 MHz fields, 6 hours", "result": "additive effect"}, {"measurement": "growth of S. aureus relative to control", "setting": "S. aureus [3]; chloramphenicol 0.25 μg/ml, 0 V/cm, 6 hours", "result": 66, "unit": "%"}, {"measurement": "growth of S. aureus relative to control", "setting": "S. aureus [3]; chloramphenicol 0.25 μg/ml, 0.5-2.0 V/cm 10 MHz fields, 6 hours", "result": 39, "unit": "%"}, {"measurement": "growth of S. aureus relative to control", "setting": "S. aureus [3]; chloramphenicol 0.25 μg/ml, 2.0-2.5 V/cm 10 MHz fields, 6 hours", "result": 51, "unit": "%"}, {"measurement": "growth of S. aureus relative to control", "setting": "S. aureus [3]; chloramphenicol 0.25 μg/ml, 3.5-4.5 V/cm 10 MHz fields, 6 hours", "result": 13, "unit": "%"}, {"measurement": "growth of S. aureus relative to control", "setting": "S. aureus [3]; chloramphenicol 0.5 μg/ml, 0 V/cm, 6 hours", "result": 45, "unit": "%"}, {"measurement": "growth of S. aureus relative to control", "setting": "S. aureus [3]; chloramphenicol 0.5 μg/ml, 0.5-2.0 V/cm 10 MHz fields, 6 hours", "result": 16, "unit": "%"}, {"measurement": "growth of S. aureus relative to control", "setting": "S. aureus [3]; chloramphenicol 0.5 μg/ml, 2.0-2.5 V/cm 10 MHz fields, 6 hours", "result": 20, "unit": "%"}, {"measurement": "growth of S. aureus relative to control", "setting": "S. aureus [3]; chloramphenicol 0.5 μg/ml, 3.5-4.5 V/cm 10 MHz fields, 6 hours", "result": 21, "unit": "%"}, {"measurement": "growth of S. aureus relative to control", "setting": "S. aureus [3]; chloramphenicol 1 μg/ml, 0 V/cm, 6 hours", "result": 30, "unit": "%"}, {"measurement": "growth of S. aureus relative to control", "setting": "S. aureus [3]; chloramphenicol 1 μg/ml, 0.5-2.0 V/cm 10 MHz fields, 6 hours", "result": 26, "unit": "%"}, {"measurement": "growth of S. aureus relative to control", "setting": "S. aureus [3]; chloramphenicol 1 μg/ml, 2.0-2.5 V/cm 10 MHz fields, 6 hours", "result": 6, "unit": "%"}, {"measurement": "growth of S. aureus relative to control", "setting": "S. aureus [3]; chloramphenicol 1 μg/ml, 3.5-4.5 V/cm 10 MHz fields, 6 hours", "result": 2, "unit": "%"}, {"measurement": "growth of S. aureus relative to control", "setting": "S. aureus [3]; chloramphenicol 4 μg/ml, 0 V/cm, 6 hours", "result": 7, "unit": "%"}, {"measurement": "growth of S. aureus relative to control", "setting": "S. aureus [3]; chloramphenicol 4 μg/ml, 0.5-2.0 V/cm 10 MHz fields, 6 hours", "result": 13, "unit": "%"}, {"measurement": "growth of S. aureus relative to control", "setting": "S. aureus [3]; chloramphenicol 4 μg/ml, 2.0-2.5 V/cm 10 MHz fields, 6 hours", "result": 2, "unit": "%"}, {"measurement": "growth of S. aureus relative to control", "setting": "S. aureus [3]; chloramphenicol 4 μg/ml, 3.5-4.5 V/cm 10 MHz fields, 6 hours", "result": 0, "unit": "%"}, {"measurement": "FIC index", "setting": "S. aureus [3]; electric fields + chloramphenicol, based on OD measurements", "result": 0.625}, {"measurement": "concentration sufficient to produce complete inhibition of the growth of S. aureus in combination with electric fields", "setting": "S. aureus [3]; in the presence of 4 V/cm 10 MHz electric fields applied for 6 hours, field direction alternating every 300 ms", "result": 1, "unit": "µg/mL"}]}]}
